Laboratory results from patent US12509445B2, “Herbicidally active 4-cyclopropyl-6-[4-(trifluormethyl)pyrazol-1-yl)]pyrimidines” (Bayer Aktiengesellschaft, priority 2019, dated 2025).

Assays:
Format in all cases: in vivo
Veronica persica (VERPE) [1] = experiment: Pre-emergence herbicidal action; settings: 320 g/ha, visual scoring after about 3 weeks vs untreated controls, 100% = plants have died
Excerpt: (§1) The abbreviations used here have the following meanings: • ABUTH Abutilon theophrasti • AMARE Amaranlhus retroflexus • CYPES Cyperus serotinus • ECHCGEchinocloa crus galli • LOLRI Lolium rigidum Gaudin • PHBPU Pharbitis purpurcum • SETVI Setaria viridis • VERPE Veronica persica • ALOMY Alopccurus myosuroides • AVEFA Avena fatua • DIGSA Digitaria sanguinalis • LOLMU Lolium multiflorum • MATIN Matricaria inodora • POLCO Polygonum convolvulus • STEME Stellaria media • VIOTR Viola tricolor
(§2) Seeds of monocotyledonous and dicotyledonous weed plants and crop plants are placed in plastic or organic plant pots and covered with soil. The compounds of the invention, formulated in the form of wettable powders (WP) or as emulsion concentrates (EC), are then applied onto the surface of the covering soil as aqueous suspension or emulsion with addition of 0.5% additive at a water application rate of 600 l/ha (converted). After the treatment, the pots are placed in a greenhouse and kept under good growth conditions for the trial plants. After about 3 weeks, the effect of the preparations is scored visually in comparison with untreated controls as percentages. For example, 100% activity=the plants have died, 0% activity=like control plants.

[2] = test system: Amaranthus retroflexus (AMARE); experiment: Pre-emergence herbicidal action; settings: 320 g/ha, visual scoring after about 3 weeks vs untreated controls, 100% = plants have died
Excerpt: as §1, §2

[3] = test system: Abutilon theophrasti (ABUTH); experiment: Pre-emergence herbicidal action; settings: 320 g/ha, visual scoring after about 3 weeks vs untreated controls, 100% = plants have died
Excerpt: as §1, §2

[4] = test system: Cyperus serotinus (CYPES); experiment: Pre-emergence herbicidal action; settings: 320 g/ha, visual scoring after about 3 weeks vs untreated controls, 100% = plants have died
Excerpt: as §1, §2

[5] = test system: Pharbitis purpurea (PHBPU); experiment: Pre-emergence herbicidal action; settings: 320 g/ha, visual scoring after about 3 weeks vs untreated controls, 100% = plants have died
Excerpt: as §1, §2

[6] = test system: Lolium multiflorum (LOLMU); experiment: Pre-emergence herbicidal action; settings: 320 g/ha, visual scoring after about 3 weeks vs untreated controls, 100% = plants have died
Excerpt: as §1, §2

Avena fatua (AVEFA) [7] = experiment: Pre-emergence herbicidal action; settings: 320 g/ha, visual scoring after about 3 weeks vs untreated controls, 100% = plants have died
Excerpt: as §1, §2

[8] = test system: harmful plants such as Alopecurus myosuroides, Amaranthus retroflexus, Avena fatua, Echinochloa crus-galli, Matricaria inodora, Pharbitis purpurea, Polygonum …; experiment: Pre-emergence herbicidal action, summary in text; settings: pre-emergence treatment
Excerpt: as §2
At the same time, some compounds according to the invention leave graminaceous crops such as barley, wheat, rye, millet/sorghum, maize, rice or sugarcane virtually undamaged when applied by the pre-emergence method, even at high active compound dosages. Some compounds are additionally also benign to dicotyledonous crops such as soya, cotton, oilseed rape or sugarbeet.

[9] = test system: Abutilon theophrasti (ABUTH); experiment: Post-emergence herbicidal action
Procedure: (§3) Seeds of monocotyledonous and dicotyledonous weeds and crop plants are placed in sandy loam in plastic or organic plant pots, covered with soil and cultivated in a greenhouse under controlled growth conditions. 2 to 3 weeks after sowing, the test plants are treated at the one-leaf stage. The compounds of the invention, formulated in the form of wettable powders (WP) or as emulsion concentrates (EC), are then sprayed onto the green parts of the plants as aqueous suspension or emulsion with addition of 0.5% additive at a water application rate of 600 l/ha (converted). After the test plants have been kept in the greenhouse under optimum growth conditions for about 3 weeks, the activity of the preparations is rated visually in comparison to untreated controls. For example, 100% activity=the plants have died, 0% activity=like control plants.
as §1
(§4) The compounds according to the invention were tested by the post-emergence and pre-emergence methods under the conditions described above for comparative purposes with the structurally closest compounds known from WO 2005/089551 A1 (D1).

[10] = test system: Echinochloa crus-galli (ECHCG); experiment: Post-emergence herbicidal action
Procedure: as §3, §1, §4

[11] = test system: Matricaria inodora (MATIN); experiment: Post-emergence herbicidal action
Procedure: as §3, §1, §4

[12] = test system: Alopecurus myosuroides (ALOMY); experiment: Post-emergence herbicidal action
Procedure: as §3, §1, §4

[13] = test system: Polygonum convolvulus (POLCO); experiment: Post-emergence herbicidal action; settings: 80 g of a.i./ha, comparative test
Procedure: as §3, §1, §4

Stellaria media (STEME) [14] = experiment: Post-emergence herbicidal action
Procedure: as §3, §1, §4

Setaria viridis (SETVI) [15] = experiment: Post-emergence herbicidal action
Procedure: as §3, §1, §4

[16] = test system: Lolium multiflorum (LOLMU); experiment: Post-emergence herbicidal action
Procedure: as §3, §1, §4

Avena fatua (AVEFA) [17] = experiment: Post-emergence herbicidal action
Procedure: as §3, §1, §4

[18] = test system: harmful plants such as Abutilon theophrasti, Alopecurus myosuroides, Amaranthus retroflexus, Avena fatua, Echinochloa crus-galli, Matricaria inodora, Pharbitis …; experiment: Post-emergence herbicidal action, summary in text; settings: post-emergence treatment
Procedure: as §3
In this case, for example, in the post-emergence process, the compounds No. 1-001 and 111-001 have very good herbicidal activity (80% to 100% herbicidal action) against harmful plants such as Abutilon theophrasti, Alopecurus myosuroides, Amaranthus retroflexus, Avena fatua, Echinochloa crus-galli, Matricaria inodora, Pharbitis purpurea, Setaria viridis, Stellaria media, Veronica persica and Viola tricolor at an application rate of 0.32 kg of active substance or less per hectare. At the same time, some compounds according to the invention leave graminaceous crops such as barley, wheat, rye, millet/sorghum, maize, rice or sugarcane virtually undamaged when applied by the post-emergence method, even at high active compound dosages. Some substances are additionally also benign to dicotyledonous crops such as soya, cotton, oilseed rape or sugarbeet.

[19] = test system: Echinochloa crus-galli (ECHCG); experiment: Pre-emergence herbicidal action
Excerpt: as §1, §2, §4

Viola tricolor (VIOTR) [20] = experiment: Pre-emergence herbicidal action
Excerpt: as §1, §2, §4

[21] = test system: Matricaria inodora (MATIN); experiment: Pre-emergence herbicidal action
Excerpt: as §1, §2, §4

[22] = test system: Alopecurus myosuroides (ALOMY); experiment: Pre-emergence herbicidal action
Excerpt: as §1, §2, §4

[23] = test system: Polygonum convolvulus (POLCO); experiment: Pre-emergence herbicidal action
Excerpt: as §1, §2, §4

Stellaria media (STEME) [24] = experiment: Pre-emergence herbicidal action
Excerpt: as §1, §2, §4

Setaria viridis (SETVI) [25] = experiment: Pre-emergence herbicidal action
Excerpt: as §1, §2, §4

Veronica persica (VERPE) [26] = experiment: Post-emergence herbicidal action; settings: 320 g/ha, visual rating after about 3 weeks vs untreated controls, 100% = plants have died
Procedure: as §3, §1

[27] = test system: Amaranthus retroflexus (AMARE); experiment: Post-emergence herbicidal action; settings: 320 g/ha, visual rating after about 3 weeks vs untreated controls, 100% = plants have died
Procedure: as §3, §1

Viola tricolor (VIOTR) [28] = experiment: Post-emergence herbicidal action; settings: 320 g/ha, visual rating after about 3 weeks vs untreated controls, 100% = plants have died
Procedure: as §3, §1

[29] = test system: Pharbitis purpurea (PHBPU); experiment: Post-emergence herbicidal action; settings: 320 g/ha, visual rating after about 3 weeks vs untreated controls, 100% = plants have died
Procedure: as §3, §1

[30] = 80 g of a.i./ha, comparative test
[31] = 320 g/ha, visual rating after about 3 weeks vs untreated controls, 100% = plants have died
[32] = 320 g/ha, visual scoring after about 3 weeks vs untreated controls, 100% = plants have died

## FC(F)(F)c1cnn(-c2cc(C3CC3)nc(Oc3ccnc(C(F)(F)F)c3)n2)c1 [Example I-001, 4-cyclopropyl-6-[4-(trifluoromethyl)-1H-pyrazol-1-yl]-2-{[2-(trifluoromethyl)pyridin-4-yl]oxy}pyrimidine]
Veronica persica (VERPE) [1]
  Pre-emergence action VERPE: 100%
[2]
  Pre-emergence action AMARE: 90%
[3]
  Pre-emergence action ABUTH: 90%
[4]
  Pre-emergence action CYPES: 80%
[5]
  Pre-emergence action PHBPU: 100%
[6]
  Pre-emergence action LOLMU: 100%
Avena fatua (AVEFA) [7]
  Pre-emergence action AVEFA: 100%
[8]
  herbicidal action against harmful plants (in words): good herbicidal action
[9]; [30]
  Herbicidal action against ABUTH: 90%
[9]; [31]
  Post-emergence action ABUTH: 100%
[10]; [30]
  Herbicidal action against ECHCG: 90%
[10]; [31]
  Post-emergence action ECHCG: 90%
[11]; [30]
  Herbicidal action against MATIN: 90%
[11]; [31]
  Post-emergence action MATIN: 90%
[12]; [30]
  Herbicidal action against ALOMY: 80%
[12]; [31]
  Post-emergence action ALOMY: 90%
[13]
  Herbicidal action against POLCO: 100%
Stellaria media (STEME) [14]; [30]
  Herbicidal action against STEME: 90%
Stellaria media (STEME) [14]; [31]
  Post-emergence action STEME: 100%
Setaria viridis (SETVI) [15]; [30]
  Herbicidal action against SETVI: 90%
Setaria viridis (SETVI) [15]; [31]
  Post-emergence action SETVI: 100%
[16]; [30]
  Herbicidal action against LOLMU: 90%
[16]; [31]
  Post-emergence action LOLMU: 100%
Avena fatua (AVEFA) [17]; [30]
  Herbicidal action against AVEFA: 80%
Avena fatua (AVEFA) [17]; [31]
  Post-emergence action AVEFA: 90%
[18]
  herbicidal action against harmful plants (in words): good herbicidal action
[19]; [30]
  Herbicidal action against ECHCG: 100%
[19]; [32]
  Pre-emergence action ECHCG: 100%
Viola tricolor (VIOTR) [20]; [30]
  Herbicidal action against VIOTR: 100%
Viola tricolor (VIOTR) [20]; [32]
  Pre-emergence action VIOTR: 100%
[21]; [30]
  Herbicidal action against MATIN: 100%
[21]; [32]
  Pre-emergence action MATIN: 100%
[22]; [30]
  Herbicidal action against ALOMY: 100%
[22]; [32]
  Pre-emergence action ALOMY: 100%
[23]; [30]
  Herbicidal action against POLCO: 100%
[23]; [32]
  Pre-emergence action POLCO: 100%
Stellaria media (STEME) [24]; [30]
  Herbicidal action against STEME: 100%
Stellaria media (STEME) [24]; [32]
  Pre-emergence action STEME: 100%
Setaria viridis (SETVI) [25]; [30]
  Herbicidal action against SETVI: 100%
Setaria viridis (SETVI) [25]; [32]
  Pre-emergence action SETVI: 100%
Veronica persica (VERPE) [26]
  Post-emergence action VERPE: 100%
[27]
  Post-emergence action AMARE: 90%
Viola tricolor (VIOTR) [28]
  Post-emergence action VIOTR: 100%
[29]
  Post-emergence action PHBPU: 90%
